Patent publication US12360106B2, “Photochromic xanthene fluorophores and their utility in live-cell imaging beyond the diffraction limit” (HOWARD HUGHES MEDICAL INSTITUTE, priority 2017, dated 2025)

Assay: water solubility (comparative statement)
Format: physicochemical
Conditions: compared to PC-JF549-NHS

Q: For COCCOCCOCCOCCNC(=O)c1cc2ccc(N3C(=O)c4ccc(C(=O)ON5C(=O)CCC5=O)cc4C34c3ccc(N5CCC5)cc3[Si](C)(C)c3cc(N5CCC5)ccc34)cc2oc1=O [PC-JF646-PEG-NHS, 2,5-dioxopyrrolidin-1-yl 2′-(3-((2,5,8,11-tetraoxatridecan-13-yl)carbamoyl)-2-oxo-2H-chromen-7-yl)-3,7-di(azetidin-1-yl)-5,5-dimethyl-3′-oxo-5H-spiro[dibenzo[b,e]siline-10,1′-isoindoline]-6′-carboxylate], which water solubility is on record?
A: The water solubility was “better water solubility”.
